Test results published in PMC10889512, “Pyrimidine Schiff Bases: Synthesis, Structural Characterization and Recent Studies on Biological Activities” (International Journal of Molecular Sciences, 2024).
In brackets after ≈: the same amount, converted by molar mass. Read-outs that look alike come from different tables or passages of the source.

Columns and labels:
AGS cell line = test system: AGS cell line; parameters: method as in Suttie et al. 87; conditions: ref Suttie et al. 87; cited from earlier work
A172 cell line = test system: A172 cell line; parameters: method as in PMID 30405885; conditions: A172, 72 h, 200 µM; cited from earlier work
RPTEC cell line = assay: Neutral red uptake assay on RPTEC cell line; type: cell-based; conditions: 100 µM, 72 h
Method: In order to evaluate the cytotoxic properties of the tested compounds (4a–d), a neutral red uptake (NR) assay was performed on the RPTEC cell line. Four concentrations were used: 10, 100, 250, and 500 µM of each compound. The compound 4a was rejected from further investigation on cancer cell lines due to its high cytotoxicity (53 and 67% at 100 and 250 µM, respectively). Furthermore, at a concentration of 500 µM, the compound 4a crystallized, which influenced the obtained results by attenuating cytotoxic activity. Cell lines were plated in 96-well plates at a density of 1 × 10^4 cells/well. After 24 h incubation, which allowed the cells to attach and start to proliferate, the culture media were replaced with 4a–d dissolved in the appropriate medium at concentrations of 1, 10, 50, 100, 150 and 200 µM. […] Negative (1% DMSO in medium) and positive (1 µM staurosporine) controls were also included. Plates were incubated at 37 °C for 24, 48, and 72 h before the neutral red uptake assay. […] A 100 µL quantity of destain solution consisting of 50% ethanol, 1% glacial acetic acid, and deionized water was added to each well. […] Absorption was measured at 540 nm excitation. The cells’ viability was calculated by comparing results from experimental sets with negative controls according to the formula: % viability=ODtest substance−ODblind/ODnegative control−ODblind×100

E. faecalis 29212 = assay: Antimicrobial activity assay, microdilution; type: cell-based, Enterococcus faecalis; conditions: concentration range from 0.5 µg/mL to 256 µg/mL
Method: (§1) In vitro antimicrobial and antifungal activity was screened using microdilution and modified Richard’s medium. The assay was performed for compounds 4a, 4b, 4c, and 4d with seven reference microbial strains from ATTC (E. coli 25922, S. aureus 43300, K. pneumoniae 700603, A. baumannii 19606, P. aeruginosa 27853, E. faecalis 29212, and C. albicans 10231).
(§2) Seven reference strains from the ATCC collection (Escherichia coli 25922, Staphylococcus aureus 43300, Klebsiella pneumoniae 13883, Acinetobacter baumannii 19606, Pseudomonas aeruginosa 27853, Enterococcus faecalis 29212, and Candida albicans 10231) were used. The assay was performed according to a modified version of Richard et al.’s protocol and ISO standards 20776-1:2019 and 16256:2021 [78, 79]. Microdilution with spectrophotometric measurement was used to calculate MIC50 (minimal inhibitory concentration which decreased the microorganisms’ viability to 50%) values. Briefly, compounds were prepared 100× concentrated in DMSO, and during the whole experiment, they were diluted to 1× with TSB. Serial dilutions of tested compounds were made directly on plates at a concentration range of 0.5 to 256 µg/mL. Microorganisms were incubated for 24 h at 37 °C (bacteria) or 25 °C (yeast) on Petri dishes with TSA. The bacteria/yeast suspensions were prepared at a density 5 × 10^5 CFU/mL (for bacteria) or 0.5–2.5 × 10^5 CFU/mL (for yeast) with TSB. Also, appropriate controls were contained in the experiment: the positive control consisted of a specific strain in TSB, and the negative control was TSB alone. To ensure that used strains were not modified and were still responding to antibacterial/antifungal compounds established by EUCAST, additional tests were conducted with levofloxacin, gentamicin, and amphotericin B. Microplates were incubated on a shaker for 24 h at 37 ± 1 °C or 25 ± 1 °C for the bacteria and yeast strains, respectively. After the incubation, spectrophotometric measurement was performed at 580 nm. MIC50 was calculated by comparing the results obtained for experimental sets with positive controls. Next, 50 µL aliquots of 1% (m/v) TTC solution were added to each well. The plates were incubated on the shaker for 24 h at 37/25 °C. In living microbial cells, colourless TTC is converted into red formazan crystals, which allows for visual observation and MBC/MFC (minimal bactericidal/fungicidal concentration) value assessment.

A. baumannii 19606 = assay: Antimicrobial activity assay, microdilution; type: cell-based, Acinetobacter baumannii; conditions: concentration range from 0.5 µg/mL to 256 µg/mL
Method: as §1, §2

C. albicans 10231 = assay: Antifungal activity assay, microdilution; type: cell-based, Candida albicans; conditions: concentration range from 0.5 µg/mL to 256 µg/mL
Method: as §1, §2

K. pneumoniae 700603 = assay: Antimicrobial activity assay, microdilution; type: cell-based, Klebsiella pneumoniae; conditions: concentration range from 0.5 µg/mL to 256 µg/mL
Method: as §1, §2

E. coli 25922 = assay: Antimicrobial activity assay, microdilution; type: cell-based, Escherichia coli; conditions: concentration range from 0.5 µg/mL to 256 µg/mL
Method: as §1, §2

S. aureus 43300 = assay: Antimicrobial activity assay, microdilution; type: cell-based, Staphylococcus aureus; conditions: concentration range from 0.5 µg/mL to 256 µg/mL
Method: as §1, §2

P. aeruginosa 27853 = assay: Antimicrobial activity assay, microdilution; type: cell-based, Pseudomonas aeruginosa; conditions: concentration range from 0.5 µg/mL to 256 µg/mL
Method: as §1, §2

CaCo-2 = assay: Neutral red uptake assay on CaCo-2; type: cell-based; conditions: Homo sapiens; CaCo-2, 72 h treatment
Method: (§3) Based on the results obtained for the RPTEC cell line, the following concentrations of 4b–d were chosen to be applied to neoplastic cell lines: 0.1, 1, 10, 25, 50, and 100 µM. A172, AGS, CaCo-2, HeLa, and HepG2 cancer cell lines were used to perform a neutral red uptake assay. The obtained results were compared with a negative control (cell lines incubated without tested compounds), and half-maximal inhibitory concentration (IC50) values were calculated. Cell lines were plated in 96-well plates at a density of 1 × 10^4 cells/well. After 24 h incubation, which allowed the cells to attach and start to proliferate, the culture media were replaced with 4a–d dissolved in the appropriate medium at concentrations of 1, 10, 50, 100, 150 and 200 µM. […] Negative (1% DMSO in medium) and positive (1 µM staurosporine) controls were also included. Plates were incubated at 37 °C for 24, 48, and 72 h before the neutral red uptake assay. The neutral red uptake assay was performed as described by Repetto et al.. Briefly, the medium from all wells was discarded, the attached cells were washed with 100 µL PBS, and then 100 µL of neutral red working solution in medium (40 µg/mL) was added to each well. The neutral red solution was incubated overnight in the same conditions as the cells and centrifuged before being added to the cells. The plates were incubated for at least 2 h at 37 °C, 5% CO2, in a humidified atmosphere. Next, the neutral red medium was removed, and the cells were washed with 100 µL PBS. A 100 µL quantity of destain solution consisting of 50% ethanol, 1% glacial acetic acid, and deionized water was added to each well. Plates were incubated for 30 min with constant shaking on a horizontal shaker at 37 °C. Absorption was measured at 540 nm excitation. The cells’ viability was calculated by comparing results from experimental sets with negative controls according to the formula: % viability=ODtest substance−ODblind/ODnegative control−ODblind×100

HepG2 = assay: Neutral red uptake assay on HepG2; type: cell-based; conditions: Homo sapiens; HepG2, 72 h treatment
Method: as §3

A172 [1] = assay: Neutral red uptake assay on A172; type: cell-based, human; conditions: Homo sapiens, A 172, 72 h, A172, 72 h treatment
Method: as §3

HeLa = assay: Neutral red uptake assay on HeLa; type: cell-based; conditions: Homo sapiens, 72 h treatment
Method: as §3

AGS = assay: Neutral red uptake assay on AGS; type: cell-based, human; conditions: 72 h treatment
Method: as §3

Enterococcus faecalis = test system: Enterococcus faecalis; parameters: method as in PMID 33921108; conditions: cited from earlier work
A172 [2] = test system: A172; parameters: method as in PMID 33921108; conditions: cited from earlier work

For `O=c1[nH]cc(F)c(=O)[nH]1` [5-fluorouracil], the LD50 (AGS cell line) is given as 153.7 µM.

In the case of `Cn1nnc2c(C(N)=O)ncn2c1=O` [TMZ, temozolomide], the cell viability (A172 cell line) is given as “below 70%”.

For `Cc1nc(-c2ccccc2)nc(Nc2ccc(F)cc2)c1C=Nc1ccc(F)cc1` [compound 4a, N-(4-fluorophenyl)-5-{[(4-fluorophenyl)imino]methyl}-6-methyl-2-phenylpyrimidin-4-amine], the cytotoxicity (RPTEC cell line) was 53%, the “MIC and MBC/MFC activity” value (E. faecalis 29212) was “Neither MIC nor MBC/MFC activity was observed” and the “MIC and MBC/MFC activity” value (A. baumannii 19606) was “Neither MIC nor MBC/MFC activity was observed”. For the same molecule, the “MIC and MBC/MFC activity” value (C. albicans 10231) was “Neither MIC nor MBC/MFC activity was observed”, the “MIC and MBC/MFC activity” value (K. pneumoniae 700603) was “Neither MIC nor MBC/MFC activity was observed” and the “MIC and MBC/MFC activity” value (E. coli 25922) was “Neither MIC nor MBC/MFC activity was observed”. The “MIC and MBC/MFC activity” value (S. aureus 43300) was “Neither MIC nor MBC/MFC activity was observed”, the “MIC and MBC/MFC activity” value (P. aeruginosa 27853) was “Neither MIC nor MBC/MFC activity was observed” and the melting point was 178 °C.

For `COc1ccccc1N=Cc1c(C)nc(-c2ccccc2)nc1Nc1ccc(F)cc1` [compound 4c, N-(4-fluorophenyl)-6-methyl-2-phenyl-5-{[(2-methoxyphenyl)imino]methyl}pyrimidin-4-amine], the “MIC and MBC/MFC activity” value (E. faecalis 29212) was “Neither MIC nor MBC/MFC activity was observed”, the “MIC and MBC/MFC activity” value (A. baumannii 19606) was “Neither MIC nor MBC/MFC activity was observed” and the “MIC and MBC/MFC activity” value (C. albicans 10231) was “Neither MIC nor MBC/MFC activity was observed”. The IC50 (CaCo-2) was > 100 µM, the IC50 (HepG2) was > 100 µM and the “MIC and MBC/MFC activity” value (K. pneumoniae 700603) was “Neither MIC nor MBC/MFC activity was observed”. The “MIC and MBC/MFC activity” value (E. coli 25922) was “Neither MIC nor MBC/MFC activity was observed”, the “MIC and MBC/MFC activity” value (S. aureus 43300) was “Neither MIC nor MBC/MFC activity was observed” and the “MIC and MBC/MFC activity” value (P. aeruginosa 27853) was “Neither MIC nor MBC/MFC activity was observed”. The IC50 (A172 [1]) was > 100 µM, the melting point was 167 to 169 °C and the IC50 (HeLa) was > 100 µM. The IC50 (AGS; Homo sapiens, 72 h) was > 100 µM.

In the case of `Cc1nc(-c2ccccc2)nc(Nc2ccc(F)cc2)c1C=Nc1ccc(Cl)c(C(F)(F)F)c1` [compound 4d, 5-[{[4-chloro-3-(trifluoromethyl)phenyl]imino}methyl]-N-(4-fluorophenyl)-6-methyl-2-phenylpyrimidin-4-amine], the “MIC and MBC/MFC activity” value (E. faecalis 29212) is reported as “Neither MIC nor MBC/MFC activity was observed”, the “MIC and MBC/MFC activity” value (A. baumannii 19606) is reported as “Neither MIC nor MBC/MFC activity was observed” and the “MIC and MBC/MFC activity” value (C. albicans 10231) is reported as “Neither MIC nor MBC/MFC activity was observed”. For the same molecule, the IC50 (CaCo-2) was > 100 µM, the IC50 (HepG2) was > 100 µM and the “MIC and MBC/MFC activity” value (K. pneumoniae 700603) was “Neither MIC nor MBC/MFC activity was observed”. The “MIC and MBC/MFC activity” value (E. coli 25922) was “Neither MIC nor MBC/MFC activity was observed”, the “MIC and MBC/MFC activity” value (S. aureus 43300) was “Neither MIC nor MBC/MFC activity was observed” and the “MIC and MBC/MFC activity” value (P. aeruginosa 27853) was “Neither MIC nor MBC/MFC activity was observed”. The IC50 (A172 [1]) was > 100 µM, the melting point was 210 °C and the IC50 (HeLa) was > 100 µM. The IC50 (AGS) was > 100 µM and the IC50 (AGS; Homo sapiens, 72 h) was 190 µM.

In the case of `CCOc1ccc(N=Cc2c(C)nc(-c3ccccc3)nc2Nc2ccc(F)cc2)cc1` [compound III, 5-[(4-ethoxyphenyl)imino]methyl-N-(4-fluorophenyl)-6-methyl-2-phenylpyrimidin-4-amine], the MBC (Enterococcus faecalis) is given as 32 µg/mL (≈ 75 µM), the MIC (Enterococcus faecalis) is given as 16 µg/mL (≈ 37.5 µM) and the IC50 (A172 [2]) is given as 526 µM.

In the case of `COc1cccc2c1C(=O)c1c(O)c3c(c(O)c1C2=O)C[C@@](O)(C(=O)CO)C[C@@H]3O[C@H]1C[C@H](N)[C@@H](O)[C@H](C)O1` [epirubicin], the LD50 (AGS cell line) is listed as 0.23 µM.
